# Experimental data from ChEMBL document CHEMBL4270551, “Biological evaluation and structure-activity relationships of imidazole-based compounds as antiprotozoal agents” (Eur J Med Chem, 2018).
# The source made the active and inactive calls. The calls are words filed in the database; no cut-off is given here.
# What was measured:
# [1] = Selectivity index, ratio of CC50 for rat L6 cells to IC50 for erythrocytic stage of chloroquine and pyrimethamine resistant Plasmodium falciparum K1; assay type: toxicity; conditions: read-out: Ratio CC50/IC50
# Leishmania donovani = assay: Antileishmanial activity against Leishmania donovani MHOM/ET/67/L82 axenic amastigotes after 72 hrs by alamar blue staining based fluorescence assay; assay type: functional, organism-based; conditions: MHOM/ET/67/L82, 72 h
# [2] = test system: Trypanosoma brucei rhodesiense; assay: Antiprotozoal activity against Trypanosoma brucei rhodesiense STIB900 trypomastigote after 72 hrs by Alamar Blue assay; assay type: functional, organism-based; conditions: STIB900, 72 h
# Trypanosoma cruzi [3] = assay: Antitrypanosomal activity against Trypanosoma cruzi Tulahuen strain C2C4 amastigote forms infected in rat L6 cells after 96 hrs by CPRG/Nonidet reagent based photometric method; assay type: functional, organism-based; conditions: Tulahuen strain C2C4, L6, 96 h
# [4] = Selectivity index, ratio of CC50 for rat L6 cells to IC50 for Trypanosoma brucei rhodesiense STIB900 trypomastigote; assay type: toxicity; conditions: read-out: Ratio CC50/IC50
# [5] = Selectivity index, ratio of CC50 for rat L6 cells to IC50 for Trypanosoma cruzi Tulahuen strain C2C4 amastigote forms infected in rat L6 cells; assay type: toxicity, cell-based; conditions: read-out: Ratio CC50/IC50
# [6] = Selectivity index, ratio of CC50 for rat L6 cells to IC50 for Leishmania donovani MHOM/ET/67/L82 axenic amastigotes; assay type: toxicity; conditions: read-out: Ratio CC50/IC50
# Plasmodium falciparum = assay: Antiprotozoal activity against erythrocytic stage of chloroquine and pyrimethamine resistant Plasmodium falciparum K1 assessed as reduction in [3H]-hypoxanthine incorporation preincubated for 24 hrs followed by [3H]-hypoxanthine addition measured after 24 hrs by scintillation counting method; assay type: functional, organism-based
# [7] = Cytotoxicity against rat L6 cells after 72 hrs by alamar blue staining based fluorescence assay; assay type: cell-based
# Trypanosoma cruzi [8] = assay: Potency index, ratio of benznidazole IC50 to test compound IC50 for Trypanosoma cruzi Tulahuen strain C2C4 amastigote forms infected in rat L6 cells; assay type: functional
# Mus musculus [9] = assay: Toxicity in Balb/c mouse infected with Trypanosoma cruzi CL Brener assessed as reduction in mobility at 25 mg/kg, ip bid for 4 days measured during compound dosing; assay type: organism-based; conditions: in vivo, 96 h
# Mus musculus [10] = assay: Toxicity in Balb/c mouse infected with Trypanosoma cruzi CL Brener assessed as lack of grooming at 25 mg/kg, ip bid for 4 days measured during compound dosing; assay type: organism-based; conditions: in vivo, 96 h
# [11] = molecular target: Sterol 14-alpha demethylase (Trypanosoma cruzi (strain CL Brener)) (UniProt Q7Z1V1); assay: Binding affinity to Trypanosoma cruzi CYP51 by quartz cuvette based UV-vis spectroscopic method
# [12] = molecular target: Sterol 14-alpha demethylase (Trypanosoma cruzi (strain CL Brener)) (UniProt Q7Z1V1); assay: Binding affinity to Trypanosoma cruzi CYP51 at 5 to 10 uM by 96-well based UV-vis spectroscopic method
# Mus musculus [13] = assay: Toxicity in Balb/c mouse infected with Trypanosoma cruzi CL Brener assessed as weight loss at 25 mg/kg, ip bid for 4 days measured during compound dosing; assay type: organism-based; conditions: in vivo, 96 h
# Trypanosoma cruzi [14] = assay: Antitrypanosomal activity against luciferase-expressing Trypanosoma cruzi CL Brener infected in Balb/c mouse assessed as reduction in parasitemia at 2.5 mg/kg, ip bid for 4 days by bioluminescence assay relative to control; assay type: functional; set-up: scale not given: the % may be the effect or the level left
# Mus musculus [15] = assay: Toxicity in Balb/c mouse infected with Trypanosoma cruzi CL Brener assessed as hunched posture at 25 mg/kg, ip bid for 4 days measured during compound dosing; assay type: organism-based; conditions: in vivo, 96 h
# Chain of Sterol 14-alpha demethylase (Trypanosoma cruzi (strain CL Brener)) (Q7Z1V1 whole entry, looked up): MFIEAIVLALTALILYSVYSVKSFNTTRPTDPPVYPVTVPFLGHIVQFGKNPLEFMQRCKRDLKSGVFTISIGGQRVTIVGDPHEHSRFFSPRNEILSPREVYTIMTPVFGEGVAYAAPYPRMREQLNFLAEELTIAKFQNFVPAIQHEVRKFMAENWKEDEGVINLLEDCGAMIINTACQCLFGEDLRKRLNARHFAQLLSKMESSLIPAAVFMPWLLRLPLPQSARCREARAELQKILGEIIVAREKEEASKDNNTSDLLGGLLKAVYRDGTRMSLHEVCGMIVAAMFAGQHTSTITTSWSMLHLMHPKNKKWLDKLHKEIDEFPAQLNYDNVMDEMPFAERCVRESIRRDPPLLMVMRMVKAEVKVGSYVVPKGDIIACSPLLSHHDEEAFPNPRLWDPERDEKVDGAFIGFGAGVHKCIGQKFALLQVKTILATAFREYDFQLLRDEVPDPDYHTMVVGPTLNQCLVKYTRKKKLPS
SMILES,selectivity ratio [1],IC50 (Leishmania donovani) [µM],IC50 [2] [µM],IC50 (Trypanosoma cruzi [3]) [µM],selectivity ratio [4],selectivity ratio [5],selectivity ratio [6],IC50 (Plasmodium falciparum) [µM],CC50 at 72 h [7] [µM],Ratio IC50 (Trypanosoma cruzi [8]),Activity (Mus musculus [9]),Activity (Mus musculus [10]),Activity [11],Activity [12],Activity (Mus musculus [13]),Activity (Trypanosoma cruzi [14]) [%],Activity (Mus musculus [15])
Clc1ccc(C(c2c[nH]cc2-c2ccc(-c3ccncc3)cc2)n2ccnc2)c(Cl)c1 (stereo unspecified),53,7.52,9.74,2.42,2,6,2,0.29,15.5,,,,,,,,
Cn1cc(-c2ccc(Cl)cc2)c(C(c2ccc(Cl)cc2Cl)n2ccnc2)c1 (stereo unspecified),31,4.3,36.5,0.002,,2620,1,0.17,5.23,825,Non-Toxic,Non-Toxic,Active,Active,Non-Toxic,98.5,Non-Toxic
Clc1ccc(-c2c[nH]cc2C(c2ccc(Cl)cc2)n2ccnc2)cc1 (stereo unspecified),37,7.01,15.9,0.057,,85,1,0.13,4.83,,,,,,,,
Nc1nc(N)nc(Nc2ccc([As]3SCC(CO)S3)cc2)n1 (stereo unspecified) [MELARSOPROL],,,0.0088,,,,,,,,,,,,,,
N#Cc1ccc(-c2c[nH]cc2C(c2ccc(Cl)cc2Cl)n2ccnc2)cc1 (stereo unspecified),23,8.75,11.7,10,1,2,2,0.66,15,,,,,,,,
Fc1ccc(C(c2ccn(-c3ccc(F)cc3)c2)n2ccnc2)cc1 (stereo unspecified),20,45.9,43.8,4.53,2,19,2,4.44,87.1,,,,,,,,
Fc1ccc(C(c2ccn(-c3ccc(Cl)cc3)c2)n2ccnc2)cc1 (stereo unspecified),16,15.8,36.7,3.75,2,17,4,3.98,63.1,,,,,,,,
Fc1ccc(-n2ccc(C(c3ccc(Cl)cc3)n3ccnc3)c2)cc1 (stereo unspecified),15,10.4,16.9,3.3,3,14,5,3.16,47.5,,,,,,,,
Clc1ccc(C(c2c[nH]cc2-c2ccc(Cl)c(Cl)c2)n2ccnc2)c(Cl)c1 (stereo unspecified),26,4.6,12.5,0.021,,173,1,0.14,3.64,,,,,Active,,,
Cc1ccc(C(c2ccn(-c3ccc(Cl)cc3)c2)n2ccnc2)cc1 (stereo unspecified),17,12.5,53.5,1.72,,25,3,2.53,42.6,,,,,,,,
Cc1ccc(C(c2ccn(-c3ccc(F)cc3)c2)n2ccnc2)cc1 (stereo unspecified),28,27.6,15.8,2.96,4,21,2,2.17,60.6,,,,,,,,
Fc1ccc(-n2ccc(C(c3ccccc3)n3ccnc3)c2)cc1 (stereo unspecified),19,31.5,20.4,6.14,5,17,3,5.36,104,,,,,,,,
c1ccc(C(c2ccn(-c3ccccc3)c2)n2ccnc2)cc1 (stereo unspecified),20,14.5,35.1,3.91,2,21,6,4.14,80.8,,,,,,,,
Clc1ccc(C(c2c[nH]cc2-c2ccc(-c3ccccc3)cc2)n2ccnc2)c(Cl)c1 (stereo unspecified),,12.3,17.7,32.6,,,,> 11,> 202,,,,,,,,
CC(C)(C)c1ccc(-c2c[nH]cc2C(c2ccc(Cl)cc2Cl)n2ccnc2)cc1 (stereo unspecified),60,6.98,41.2,12.8,,2,3,0.38,22.9,,,,,,,,
O=[N+]([O-])c1ccc(-c2c[nH]cc2C(c2ccc(Cl)cc2Cl)n2ccnc2)cc1 (stereo unspecified),35,7.82,5.57,3.22,3,5,2,0.48,16.9,,,,,,,,
CCCCCCCCCCCCCCCCOP(=O)([O-])OCC[N+](C)(C)C [MILTEFOSINE],,0.56,,,,,,,,,,,,,,,
Clc1ccc(C(c2c[nH]cc2-c2cccc3ccccc23)n2ccnc2)c(Cl)c1 (stereo unspecified),37,1.91,12,0.096,1,128,6,0.33,12.3,,,,,,,,
O=C(Cn1ccnc1[N+](=O)[O-])NCc1ccccc1 [BENZNIDAZOLE],,,,1.65,,,,,,,,,,,,,
Clc1ccc(-c2c[nH]cc2C(c2ccc(Cl)cc2Cl)n2ccnc2)cc1 (stereo unspecified),60,3.77,17.3,0.035,,275,3,0.16,9.61,,,,,Active,,,
COc1cc([C@@H]2c3cc4c(cc3[C@H](O)[C@H]3COC(=O)[C@H]23)OCO4)cc(OC)c1OC [PODOFILOX],,,,,,,,,0.007,,,,,,,,
Clc1ccc(-c2c[nH]cc2C(c2ccc(Cl)cc2Cl)n2ccnc2)c(Cl)c1 (stereo unspecified),55,1.19,10.5,0.034,,290,8,0.18,9.86,,,,,Active,,,
FC(F)(F)c1ccc(-c2c[nH]cc2C(c2ccc(Cl)cc2Cl)n2ccnc2)cc1 (stereo unspecified),67,12,11.3,0.05,,188,,0.14,9.4,,,,,,,,
CSc1ccc(-c2c[nH]cc2C(c2ccc(Cl)cc2Cl)n2ccnc2)cc1 (stereo unspecified),30,5.12,15.8,0.043,,168,1,0.24,7.22,,,,,,,,
